Test results published in patent US12053447B2, “Oral solution and powder to liquid compositions of balsalazide” (NuBioPharma, LLC, priority 2019, dated 2024).
Residues, ends and D or L forms follow the SMILES beside them.

Key:
[1] = Stability of sweetener aspartame in solution; assay type: physicochemical; conditions: pH 7.0 and above
[2] = Storage stability of liquid balsalazide solution (HPLC assay, settling); assay type: physicochemical
Experimental: The storage stability of two balsalazide disodium solutions, 750 mg/5 ml, with the formulations described in TABLE 6 and TABLE 7 with pH of 4.8 and pH 7.2, respectively were subjected to accelerated stability testing at 40° C. and at room temperature (25° C.). Balsalazide solutions stored in amber PVC bottles (30 ml volume) were tested over a 90-day storage period. The amount of balsalazide and its known impurities were determined by a validated high pressure liquid chromatography (HPLC) assay after 0 day (initial), 45 days, and 90 days and results are shown in TABLE 6 below. Five minor impurities (less than 0.1% each) were identified in balsalazide solution initially on day 0.

Row | SMILES | stability in solution [1] | stability of oral solution ([2]; acidic conditions of pH below 7.0) | stability of oral solution ([2]; pH of 7.0 or higher)
1 | COC(=O)[C@H](Cc1ccccc1)NC(=O)[C@@H](N)CC(=O)O [aspartame] (H-Asp-Phe-OMe) | unstable | – | –
2 | O=C(O)CCNC(=O)c1ccc(/N=N/c2ccc(O)c(C(=O)O)c2)cc1 [balsalazide] | – | unstable | stable
